According to US20060233893A1, “Aqueous solutions for the reduction of fatty tissue” (priority 2004, published 2006):

Tested on: fatty tissue
Experiment: administration of solutions to fatty tissue in aesthetic treatment of cellulite by lipotomy
Format: in vivo
Conditions: added to solution of approximately from 20 to 90 mOsm/l

Molecule | efficacy of a highly hypotonic lipotomy solution in the destruction of fatty tissue
phosphatidylcholine | increased the efficacy
O=C(O)Cc1cc(I)c(Oc2ccc(O)c(I)c2)c(I)c1 [tiratricol, triiodothyroacetic acid] | increased the efficacy
